# Assay results reported in patent US20250195659A1, “T CELL MANUFACTURING COMPOSITIONS AND METHODS” (BIONTECH US INC., priority 2021, published 2025).
# Tested on: antigen specific CD8^+ T cells
# Assay: IL-21 addition to NEO-STIM.RNA cultures
# Assay type: cell-based, human
# Description: In order to improve the NEO-STIM protocol using RNA, IL-21 was explored as an addition to the protocol.
substance,measurement,setting,value
IL-21: cytokine added to the NEO-STIM RNA protocol,"hit rate, neoantigen specific frequency and cell expansion","NEO-PTC-01.RNA, healthy donor, day 14 read-out","increased hit rate, neoantigen specific frequency and cell expansion"
same,central memory phenotype in antigen specific CD8^+ T cells,NEO-STIM,increases central memory phenotype in antigen specific CD8^+ T cells
same,Tcm population,NEO-STIM.RNA,increases Tcm population in our NEO-STIM.RNA cultures
same,expansion of cultures,NEO-STIM.RNA,improves the expansion of NEO-STIM.RNA cultures
same,priming of specific T cells,NEO-STIM.RNA,improves the priming of specific T cells in NEO-STIM.RNA cultures
